Reference: ChEMBL document CHEMBL5729461, “CDPK1 inhibitors, compositions, and methods related thereto” (2022)

The compounds below were run against T1, Calmodulin-domain protein kinase 1 (Toxoplasma gondii, UniProt Q9BJF5) (assay: Inhibition Assay: Certain of the compounds prepared as described above were assayed to determine their IC50 for inhibition of T. gondii CDPK1 (tgCDPK1). At least three independent replicates of the assay were conducted for each compound tested.).
T1 sequence (Q9BJF5 whole entry): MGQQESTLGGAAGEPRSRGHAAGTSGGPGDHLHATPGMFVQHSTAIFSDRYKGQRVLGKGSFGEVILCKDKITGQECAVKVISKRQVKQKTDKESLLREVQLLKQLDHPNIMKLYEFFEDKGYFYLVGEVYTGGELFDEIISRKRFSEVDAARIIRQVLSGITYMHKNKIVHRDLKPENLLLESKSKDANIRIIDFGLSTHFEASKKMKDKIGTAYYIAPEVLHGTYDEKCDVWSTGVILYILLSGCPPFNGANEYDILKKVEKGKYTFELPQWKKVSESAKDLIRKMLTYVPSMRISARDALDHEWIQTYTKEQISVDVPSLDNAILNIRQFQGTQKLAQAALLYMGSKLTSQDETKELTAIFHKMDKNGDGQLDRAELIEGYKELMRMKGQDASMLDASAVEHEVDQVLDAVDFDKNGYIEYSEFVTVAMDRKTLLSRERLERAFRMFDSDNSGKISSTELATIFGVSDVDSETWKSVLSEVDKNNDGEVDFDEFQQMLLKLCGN

Question: For `NC(=O)c1ccnc(Oc2nn([C@H]3C[C@H](F)C3)c3ncnc(N)c23)c1`, which IC50 is on record?
Answer: 69.7 nM

Question: How did the IC50 turn out when `N#Cc1cccc(Cc2nn([C@H]3C[C@H](F)C3)c3ncnc(N)c23)c1` was run?
Answer: 45.9 nM

Question: `Nc1ncnc2c1c(Cc1cccc(F)c1)nn2[C@H]1C[C@H](F)C1` was tested. Which IC50 did it give?
Answer: 14.2 nM

Question: With `Nc1ncnc2c1c(Cc1cccc(Cl)c1)nn2[C@H]1C[C@@H](F)C1` as the compound, how does the IC50 read?
Answer: 7.05 nM

Question: Which IC50 does the source give for `Nc1ncnc2c1c(Cc1cccc(C(F)(F)F)c1)nn2[C@H]1C[C@H](O)C1` here?
Answer: 36 nM

Question: How did the IC50 turn out when `Nc1ncnc2c1c(Cc1cccc(F)c1)cn2[C@H]1C[C@H](O)C1` was run?
Answer: 28.3 nM

Question: `Nc1ncnc2c1c(Cc1cccc(Cl)c1)nn2[C@H]1C[C@H](O)C1` was tested. Which IC50 did it give?
Answer: 8.87 nM

Question: How did the IC50 turn out when `COc1ccnc(Oc2nn([C@H]3C[C@@H](O)C3)c3ncnc(N)c23)c1` was run?
Answer: 37.1 nM

Question: `Nc1ncnc2c1c(Cc1cccc(F)c1)nn2[C@H]1C[C@H](O)C1` was tested. Which IC50 did it give?
Answer: 28.3 nM
